Data taken from ChEMBL document CHEMBL1201862, “PubChem BioAssay data set” (2004).
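Following 48 hours of exposure in 96-well plates, responses at five concentrations were used to interpolate endpoints linearly. Abbreviation: GI50, concentration required for 50% inhibition of growth.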 Activity calls are given as the source filed them. Rule as the data show it: active = GI50 up to about 1.1 µM and inactive = higher.

Experiments:
Assay in all cases: DTP human tumour cell line panel, 48 h
A498 = tested on: A498
HCT-116 = tested on: HCT-116
UO-31 = tested on: UO-31
NCI-H226 = tested on: NCI-H226
IGROV-1 = tested on: IGROV-1
SNB-75 = tested on: SNB-75
HOP-92 = tested on: HOP-92
RXF 393 = tested on: RXF 393
HCC 2998 = tested on: HCC 2998
NCI-H23 = tested on: NCI-H23
SF-539 = tested on: SF-539
HL-60 = tested on: HL-60
UACC-62 = tested on: UACC-62
Malme-3M = tested on: Malme-3M
TK-10 = tested on: TK-10
Hs-578T = tested on: Hs-578T
RPMI-8226 = tested on: RPMI-8226
NCI-H460 = tested on: NCI-H460
MDA-MB-435 = tested on: MDA-MB-435
OVCAR-3 = tested on: OVCAR-3

| SMILES | GI50 (A498) | GI50 (HCT-116) | GI50 (UO-31) | GI50 (NCI-H226) | GI50 (IGROV-1) | GI50 (SNB-75) | GI50 (HOP-92) | GI50 (RXF 393) | GI50 (HCC 2998) | GI50 (NCI-H23) | GI50 (SF-539) | GI50 (HL-60) | GI50 (UACC-62) | GI50 (Malme-3M) | GI50 (TK-10) | GI50 (Hs-578T) | GI50 (RPMI-8226) | GI50 (NCI-H460) | GI50 (MDA-MB-435) | GI50 (OVCAR-3) |
| --- | --- | --- | --- | --- | --- | --- | --- | --- | --- | --- | --- | --- | --- | --- | --- | --- | --- | --- | --- | --- |
| O=C1NC2c3c(I)sc(I)c3/C(=N\O)C2O1 (stereo not given) | 33.6 µM (inactive) | 25.1 µM (inactive) | 15.7 µM (inactive) | 31 µM (inactive) | 19.8 µM (inactive) | 59.6 µM (inactive) | 19.2 µM (inactive) | 12.7 µM (inactive) | 35.1 µM (inactive) | 23.2 µM (inactive) | 14.2 µM (inactive) | 20 µM (inactive) | 20.7 µM (inactive) | 25.1 µM (inactive) | 48.5 µM (inactive) | 11.5 µM (inactive) | 67.9 µM (inactive) | 31.5 µM (inactive) | 26.5 µM (inactive) | 18.2 µM (inactive) |
| CCCCCCCCCc1cccc(N2C(N)=NC(N)=NC2(C)C)c1 | 1.24 µM (inactive) | < 0.01 µM (active) | 1.93 µM (inactive) | 1.26 µM (inactive) | < 0.01 µM (active) | 0.735 µM (active) | 1.58 µM (inactive) | 1.95 µM (inactive) | < 0.01 µM (active) | < 0.01 µM (active) | 0.0339 µM (active) | < 0.01 µM (active) | < 0.01 µM (active) | 0.104 µM (active) | 0.0304 µM (active) | 1.04 µM (active) | 0.0112 µM (active) | < 0.01 µM (active) | 0.0165 µM (active) | 0.0547 µM (active) |
| COc1c(C)c(C/C=C(\C)CCCCO[Si](c2ccccc2)(c2ccccc2)C(C)(C)C)c(OC)c(OC)c1OC | > 100 µM (inactive) | 35.5 µM (inactive) | 9.27 µM (inactive) | > 100 µM (inactive) | 24.9 µM (inactive) | > 46.3 µM (inactive) | > 31.6 µM (inactive) | > 100 µM (inactive) | 41.8 µM (inactive) | 19.6 µM (inactive) | > 46.5 µM (inactive) | 47.3 µM (inactive) | > 46.5 µM (inactive) | > 100 µM (inactive) | > 31.6 µM (inactive) | > 100 µM (inactive) | 39.9 µM (inactive) | 14.6 µM (inactive) | > 46.5 µM (inactive) | > 46.5 µM (inactive) |
| CC(=O)OCc1cc2c(s1)C(=O)c1sccc1C2=O | 1.82 µM (inactive) | 1.74 µM (inactive) | 0.178 µM (active) | 0.355 µM (active) | 1.46 µM (inactive) | 0.057 µM (active) | 0.528 µM (active) | 0.157 µM (active) | 1.78 µM (inactive) | 0.018 µM (active) | 0.115 µM (active) | 0.29 µM (active) | 0.166 µM (active) | 0.272 µM (active) | 1.79 µM (inactive) | 0.157 µM (active) | 0.239 µM (active) | 0.175 µM (active) | 0.0178 µM (active) | 0.223 µM (active) |
| O=C1C2CCN(CC2)C1CN1CCOCC1 (stereo not given) | 16.8 µM (inactive) | 1.87 µM (inactive) | 3.84 µM (inactive) | 13.6 µM (inactive) | 19.3 µM (inactive) | 17 µM (inactive) | 1.9 µM (inactive) | 2.25 µM (inactive) | 15.7 µM (inactive) | 9.95 µM (inactive) | 15.4 µM (inactive) | 2.74 µM (inactive) | 16.1 µM (inactive) | 1.8 µM (inactive) | 6.82 µM (inactive) | 29 µM (inactive) | 2.13 µM (inactive) | 17.7 µM (inactive) | 15.5 µM (inactive) | 2.14 µM (inactive) |
| O=C1Nc2ccc([N+](=O)[O-])cc2/C1=N/NC(=S)Nc1ccc([N+](=O)[O-])cc1 | 18.2 µM (inactive) | 20.4 µM (inactive) | 18 µM (inactive) | 27.9 µM (inactive) | 17.7 µM (inactive) | 21.8 µM (inactive) | 18.5 µM (inactive) | 17.5 µM (inactive) | 20.9 µM (inactive) | 19.9 µM (inactive) | 29.4 µM (inactive) | 26.7 µM (inactive) | 21.1 µM (inactive) | 33.3 µM (inactive) | 24.7 µM (inactive) | 51.9 µM (inactive) | 34.9 µM (inactive) | 19.7 µM (inactive) | 18.4 µM (inactive) | 22.9 µM (inactive) |
